The melting point is the temperature of the solid-liquid transition.

pEC50: −log10 of the molar value. ≈ marks a conversion by molar mass, not a printed value. Entries after “also recorded” stand apart in the source; their conditions may differ.

One data set concerns H5N1.
Test: not given
The conditions noted are these: read-out: EC50 (50% effective concentration); H5N1, according to previous studies; cited from earlier work.
`NC(=O)c1ncn([C@@H]2O[C@H](CO)[C@@H](O)[C@H]2O)n1` [Ribavirin, reference compound]: the pEC50 is 4.66 to 5.22.

Tested on in the next data set: not given
Test: not given
Conditions: not given
Compound `CC(=O)Nc1cc(O)c(C(=O)O)cc1N` [compound 6a] had a melting point of 295 to 297 °C.
Same read-out and setting: next, `COC(=O)c1cc(N)c(NC(C)=O)cc1O` [compound 6b]: 204 to 206 °C.
The same measure, in the same setting: next, `CCCC(=O)Nc1cc(O)c(C(=O)OCC)cc1N` [compound 6e]: 135 to 137 °C; `COC(=O)c1cc(N)c(NC(C)=O)c(Br)c1O` [compound 6f, methyl 4-(acetamido)-5-amino-3-bromo-2-hydroxybenzoate]: 217 to 219 °C; `CC(=O)Nc1cc(O)c(C(=O)O)cc1NC(=N)N` [compound 7a, 4-(acetamido)-5-guanidino-2-hydroxybenzoic acid]: 334 to 357 °C.
Same read-out and setting: next, `COC(=O)c1cc(NC(=N)N)c(NC(C)=O)cc1O` [compound 7b, methyl 4-(acetamido)-5-guanidino-2-hydroxybenzoate]: 233 to 234 °C; `COC(=O)c1cc(NC(=N)N)c(NC(C)=O)c(Br)c1O` [compound 7f, methyl 4-(acetamido)-3-bromo-5-guanidino-2-hydroxybenzoate]: 238 to 240 °C; `CC(=O)Nc1c(N)cc(C(=O)O)c(O)c1Br` [compound 8, 4-(acetamido)-5-amino-3-bromo-2-hydroxybenzoic acid]: 210 to 211 °C.

Tested on in another data set: not listed separately
The data set is described as follows: in vitro. The settings on record: dog.
Turning to `Nc1ccc(C(=O)O)c(O)c1` [PAS, p-aminosalicylic acid, reference compound], the CC50 is over 100 µg/mL.
Still for that read-out and setting: in the case of `CC(=O)Nc1cc(O)c(C(=O)O)cc1N` [compound 6a] it was over 100 µg/mL; in that of `COC(=O)c1cc(N)c(NC(C)=O)cc1O` [compound 6b], over 100 µg/mL.
Same read-out and setting: next, `CCCC(=O)Nc1cc(O)c(C(=O)OCC)cc1N` [compound 6e]: over 100 µg/mL; `COC(=O)c1cc(N)c(NC(C)=O)c(Br)c1O` [compound 6f, methyl 4-(acetamido)-5-amino-3-bromo-2-hydroxybenzoate]: over 100 µg/mL.
Same read-out and setting: next, `CC(=O)Nc1cc(O)c(C(=O)O)cc1NC(=N)N` [compound 7a, 4-(acetamido)-5-guanidino-2-hydroxybenzoic acid]: over 100 µg/mL; `COC(=O)c1cc(NC(=N)N)c(NC(C)=O)cc1O` [compound 7b, methyl 4-(acetamido)-5-guanidino-2-hydroxybenzoate]: over 100 µg/mL; `CCCC(=O)Nc1cc(O)c(C(=O)OCC)cc1NC(=N)N` [compound 7e, ethyl 4-(butyramido)-5-guanidino-2-hydroxybenzoate]: over 100 µg/mL.
Compound `COC(=O)c1cc(NC(=N)N)c(NC(C)=O)c(Br)c1O` [compound 7f, methyl 4-(acetamido)-3-bromo-5-guanidino-2-hydroxybenzoate] yielded a CC50 of over 100 µg/mL.
In turn, `CC(=O)Nc1c(N)cc(C(=O)O)c(O)c1Br` [compound 8, 4-(acetamido)-5-amino-3-bromo-2-hydroxybenzoic acid] returned a CC50 of over 100 µg/mL.

The subject of a further data set is H1N1 virus. The data set is described as follows: microbe, parasite or virus in culture. Type of data set: cell-based. The settings on record: H1N1 in MDCK cells.
In the case of `CC(=O)Nc1cc(O)c(C(=O)O)cc1N` [compound 6a], the “anti-H1N1 / anti-influenza activity (in words)” value is listed as “better anti-H1N1 activity; also recorded: effectively inhibit influenza viral activity”.
As to `COC(=O)c1cc(N)c(NC(C)=O)cc1O` [compound 6b], the “anti-H1N1 / anti-influenza activity (in words)” value is on record as “better anti-H1N1 activity; also recorded: effectively inhibit influenza viral activity; also recorded: preferred anti-influenza activity”.
`CCCC(=O)Nc1cc(O)c(C(=O)OCC)cc1N` [compound 6e]: the “SI (selective index=CC50/MIC)” value is over 64 and the “anti-H1N1 / anti-influenza activity (in words)” value is reported as “better anti-H1N1 activity; also recorded: effectively inhibit influenza viral activity; also recorded: preferred anti-influenza activity”.
The matching figures for `COC(=O)c1cc(N)c(NC(C)=O)c(Br)c1O` [compound 6f, methyl 4-(acetamido)-5-amino-3-bromo-2-hydroxybenzoate]: over 128 and “better anti-H1N1 activity; also recorded: effectively inhibit influenza viral activity; also recorded: preferred anti-influenza activity”.
With `CC(=O)Nc1cc(O)c(C(=O)O)cc1NC(=N)N` [compound 7a, 4-(acetamido)-5-guanidino-2-hydroxybenzoic acid], the “anti-H1N1 / anti-influenza activity (in words)” value is “better anti-H1N1 activity; also recorded: effectively inhibit influenza viral activity”.
For the compound `COC(=O)c1cc(NC(=N)N)c(NC(C)=O)cc1O` [compound 7b, methyl 4-(acetamido)-5-guanidino-2-hydroxybenzoate], the “anti-H1N1 / anti-influenza activity (in words)” value is reported as “better anti-H1N1 activity; also recorded: effectively inhibit influenza viral activity”.
In the case of `CCCC(=O)Nc1cc(O)c(C(=O)OCC)cc1NC(=N)N` [compound 7e, ethyl 4-(butyramido)-5-guanidino-2-hydroxybenzoate], the “anti-H1N1 / anti-influenza activity (in words)” value is given as “no inhibiting activity”.
As to `COC(=O)c1cc(NC(=N)N)c(NC(C)=O)c(Br)c1O` [compound 7f, methyl 4-(acetamido)-3-bromo-5-guanidino-2-hydroxybenzoate], the “anti-H1N1 / anti-influenza activity (in words)” value was “no inhibiting activity”.
Same read-out and setting: next, `CC(=O)Nc1c(N)cc(C(=O)O)c(O)c1Br` [compound 8, 4-(acetamido)-5-amino-3-bromo-2-hydroxybenzoic acid]: “better anti-H1N1 activity; also recorded: effectively inhibit influenza viral activity; also recorded: preferred anti-influenza activity”.

The data set is the same for the next values; noted with them: Influenza A virus, H1N1, 48 h, read-out: MIC (minimum inhibitory concentration, cell survival rate >75%).
As for `Nc1ccc(C(=O)O)c(O)c1` [PAS, p-aminosalicylic acid, reference compound], the MIC was over 100 µg/mL.
As to `NC(=O)c1ncn([C@@H]2O[C@H](CO)[C@@H](O)[C@H]2O)n1` [Ribavirin, reference compound], the MIC turned out to be 1.56 µg/mL (≈ 6.39 µM).

The data set is the same for the next values; noted with them: Influenza A virus; H1N1 at 0.01 MOI in MDCK cells, 48 h, MTT; read-out: MIC (minimum inhibitory concentration, cell survival rate >75%).
On to `CC(=O)Nc1cc(O)c(C(=O)O)cc1N` [compound 6a], for which the MIC was 50 µg/mL (≈ 238 µM).
Same read-out and setting: next, `COC(=O)c1cc(N)c(NC(C)=O)cc1O` [compound 6b]: 1.56 µg/mL (≈ 6.96 µM); `CCCC(=O)Nc1cc(O)c(C(=O)OCC)cc1N` [compound 6e]: 1.56 µg/mL (≈ 5.86 µM).
The same measure, in the same setting: next, `COC(=O)c1cc(N)c(NC(C)=O)c(Br)c1O` [compound 6f, methyl 4-(acetamido)-5-amino-3-bromo-2-hydroxybenzoate]: 0.78 µg/mL (≈ 2.57 µM); `CC(=O)Nc1cc(O)c(C(=O)O)cc1NC(=N)N` [compound 7a, 4-(acetamido)-5-guanidino-2-hydroxybenzoic acid]: 25 µg/mL (≈ 99.1 µM); `COC(=O)c1cc(NC(=N)N)c(NC(C)=O)cc1O` [compound 7b, methyl 4-(acetamido)-5-guanidino-2-hydroxybenzoate]: 25 µg/mL (≈ 93.9 µM).
With `CCCC(=O)Nc1cc(O)c(C(=O)OCC)cc1NC(=N)N` [compound 7e, ethyl 4-(butyramido)-5-guanidino-2-hydroxybenzoate], the MIC is over 100 µg/mL.
Regarding `COC(=O)c1cc(NC(=N)N)c(NC(C)=O)c(Br)c1O` [compound 7f, methyl 4-(acetamido)-3-bromo-5-guanidino-2-hydroxybenzoate], the MIC was over 100 µg/mL.
Same read-out and setting: in the case of `CC(=O)Nc1c(N)cc(C(=O)O)c(O)c1Br` [compound 8, 4-(acetamido)-5-amino-3-bromo-2-hydroxybenzoic acid] it was 1.56 µg/mL (≈ 5.4 µM).

These data come from patent US20120101157A1, “4,5-Diamino-3-Halo-2-Hydroxybenzoic Acid Derivatives and Preparations Thereof” (NATIONAL DEFENSE MEDICAL CENTER, priority 2010, published 2012).
